Assay results as given in ChEMBL document CHEMBL5126592, “Design, synthesis and activity against drug-resistant bacteria evaluation of C-20, C-23 modified 5-O-mycaminosyltylonolide derivatives” (Eur J Med Chem, 2022).
Converted amounts (≈) assume the structure as drawn.

Tests used:
[1] = Genotoxicity in Salmonella typhimurium TA98 assessed as number of revertants at 4x10^-5 mg/plate incubated for 72 hrs in presence of liver S9 fraction by Ames test (reference value: 43.67+/- 7.1); assay type: toxicity, subcellular; conditions: salmonella enterica subsp. enterica serovar typhimurium, s9, 72 h
[2] = test system: Staphylococcus aureus; assay: Antibacterial activity against Staphylococcus aureus ATCC 29213 at pH 8.4 incubated for 16 to 20 hrs by broth microdilution method; assay type: functional; conditions: time 16-20 hrs
[3] = Genotoxicity in Salmonella typhimurium TA98 assessed as number of revertants at 1.6x10^-6 mg/plate incubated for 72 hrs in absence of liver S9 fraction by Ames test (reference value: 57.33 +/- 3.06); assay type: toxicity; conditions: salmonella enterica subsp. enterica serovar typhimurium, s9, 72 h
[4] = test system: Staphylococcus aureus; assay: Antibacterial activity against Staphylococcus aureus ATCC 29213 at pH 6.6 incubated for 16 to 20 hrs by broth microdilution method; assay type: functional; conditions: time 16-20 hrs
[5] = Genotoxicity in Salmonella typhimurium TA102 assessed as number of revertants at 8x10^-6 mg/plate incubated for 72 hrs in absence of liver S9 fraction by Ames test (reference value: 386.67 +/- 23.44); assay type: toxicity; conditions: salmonella enterica subsp. enterica serovar typhimurium, s9, 72 h
[6] = Genotoxicity in Salmonella typhimurium TA102 assessed as number of revertants at 1.6x10^-6 mg/plate incubated for 72 hrs in presence of liver S9 fraction by Ames test (reference value: 465.33 +/- 18.04); assay type: toxicity, subcellular; conditions: salmonella enterica subsp. enterica serovar typhimurium, s9, 72 h
[7] = Genotoxicity in Salmonella typhimurium TA98 assessed as number of revertants at 4x10^-5 mg/plate incubated for 72 hrs in absence of liver S9 fraction by Ames test (reference value: 57.33 +/- 3.06); assay type: toxicity; conditions: salmonella enterica subsp. enterica serovar typhimurium, s9, 72 h
[8] = Genotoxicity in Salmonella typhimurium TA1537 assessed as number of revertants at 1.6x10^-6 mg/plate incubated for 72 hrs in absence of liver S9 fraction by Ames test (reference value: 22.67 +/- 2.52); assay type: toxicity; conditions: salmonella enterica subsp. enterica serovar typhimurium, s9, 72 h
[9] = test system: Staphylococcus aureus; assay: Antibacterial activity against Staphylococcus aureus ATCC 29213 at pH 7.6 incubated for 16 to 20 hrs by broth microdilution method; assay type: functional; conditions: time 16-20 hrs
[10] = test system: Staphylococcus aureus; assay: Antibacterial activity against Staphylococcus aureus ATCC 29213 incubated for 16 to 20 hrs using 10^7 CFU/ml bacterial inoculum by broth microdilution method; assay type: functional; conditions: time 16-20 hrs
[11] = Genotoxicity in Salmonella typhimurium TA100 assessed as number of revertants at 4x10^-5 mg/plate incubated for 72 hrs in presence of liver S9 fraction by Ames test (reference value: 204.33 +/- 8.14); assay type: toxicity, subcellular; conditions: salmonella enterica subsp. enterica serovar typhimurium, s9, 72 h
[12] = test system: Staphylococcus aureus; assay: Antibacterial activity against Staphylococcus aureus ATCC 29213 incubated for 16 to 20 hrs by broth microdilution method; assay type: functional; conditions: time 16-20 hrs
[13] = test system: Staphylococcus aureus; assay: Antibacterial activity against Staphylococcus aureus ATCC 29213 at pH 7.4 incubated for 16 to 20 hrs by broth microdilution method; assay type: functional; conditions: time 16-20 hrs
[14] = Genotoxicity in Salmonella typhimurium TA1535 assessed as number of revertants at 2x10^-4 mg/plate incubated for 72 hrs in absence of liver S9 fraction by Ames test (reference value: 14.33 +/- 0.58); assay type: toxicity; conditions: salmonella enterica subsp. enterica serovar typhimurium, s9, 72 h

`CC[C@H]1OC(=O)C[C@@H](O)[C@H](C)[C@@H](O[C@@H]2O[C@H](C)[C@@H](O)[C@H](N(C)C)[C@H]2O)[C@@H](CCN(C)Cc2cn(-c3cnc4ccccc4c3)nn2)C[C@@H](C)C(=O)/C=C/C(C)=C/[C@@H]1CN1CCCCCC1` gave an Activity [1] of 44.67, an MIC [2] of no more than 0.0625 µg/mL and an Activity [3] of 64.33. It also gave an MIC [4] of 32 µg/mL (≈ 35.5 µM), an Activity [5] of 425.33 and an Activity [6] of 449.33. For the same compound, the Activity [7] was 62.33, the Activity [8] was 14.33 and the MIC [9] was 0.25 µg/mL (≈ 0.277 µM). The MIC [10] was 0.25 µg/mL (≈ 0.277 µM), the Activity [11] was 162 and the MIC [12] was 0.125 µg/mL (≈ 0.139 µM). It also gave an MIC [13] of 0.25 µg/mL (≈ 0.277 µM) and an Activity [14] of 10.33.
